Measured values published in patent US20110214190A1, “TRANSGENIC REPORTER MOUSE AND METHOD FOR USE” (priority 2008, published 2011).
Where two headings read alike, the source gives them in different places. Peptide text beside a SMILES is read from it. * marks the point of attachment. Cbz = O=C(OCc1ccccc1)*

Columns and labels:
[1] = cited from earlier work
[2] = system: Nf-κβ signaling; experiment: Nf-κβ inhibitors on LipidA induced Luc/mC expression in vivo; set-up: species or system mouse
From the text: A signaling pathway known to activate NGAL expression was taken advantage of in order to examine whether Luc2/mC expression was reversible after cessation of the stimulus. […] Subsequently, Nf-κβ mediates NGAL transcription. […] In addition, the testis is one of the few sites that tonically expresses NGAL and Luc2/mC, and even this site was suppressed by these inhibitors.

[3] = system: PARP; settings: after onset of acute hindlimb ischemia (post hoc), during I/R; cited from earlier work
[4] = system: cells from reporter kidneys; experiment: NGAL-luciferase activity in primary cells from reporter kidneys; format: cell-based, mouse; settings: plates seeded with cells from reporter kidneys
From the text: NGAL di-fusion primary cells from whole organs. Whole kidney cells were obtained from the NGAL di-fusion reporter mice (8-12 weeks of age) using collagenase (Sigma) digestion, differential sieving and seeded at a density of 1×10^5 per well. Cells were washed with a buffered salt solution and grown overnight before exposure to TLR agonists, ROS inducing species or toxin. Plates were imaged in the Xenogen IVIS optical imaging system (Xenogen Corp., Almeda, Calif.) for NGAL-luciferase activity.
Bioluminescence and Fluorescence Imaging of mCherry and luciferase Expression in Living Mice and primary cell lines. For in vivo bioluminescence imaging, mice were anesthetized, and injected with 150 mg/kg of luciferin in PBS (pH 7) via IP injection that is allowed to distribute in awake animals for about 10 minutes. […] Regions of interest (ROIs) were drawn on the dorsal side of the animal and quantified by using Living Image Software version 3.1. Counts detected in the ROIs by the CCD camera digitizer can by converted to physical units of radiance in photons/s/cm2/steradian. […] NGAL reporter primary cells were first imaged for mCherry activity with block excitation and block emission and NGAL-luciferase activity was quantified by detection of light emitted after cell lysis and incubation with luciferin. […]

[5] = system: cyst growth; settings: polycystic kidney disease model; cited from earlier work
[6] = system: NGAL expression; experiment: Cell stressors, NGAL expression; format: cell-based; settings: H202 1 mmol/L for 4 hours
[7] = system: NGAL-Luc2/mC reporter; experiment: In vivo bioluminescence imaging of NGAL di-fusion reporter mouse after LipidA; settings: for NGAL activity assayed by luciferase (Luc2/mC response): kidney, liver, spleen, skin and lung, 24 hours after lipidA i.p. at 5, 15 and 30 mg/kg
Protocol: Bioluminescence and Fluorescence Imaging of mCherry and luciferase Expression in Living Mice and primary cell lines. For in vivo bioluminescence imaging, mice were anesthetized, and injected with 150 mg/kg of luciferin in PBS (pH 7) via IP injection that is allowed to distribute in awake animals for about 10 minutes. […]. Mice are then placed in a light tight chamber equipped with a halogen light source, and whole body image was acquired for 30 seconds using the Xenogen IVIS optical imaging system with a block excitation filter and a block emission filter for NGAL-mCherry visualization and an open emission filter for NGAL-luciferase activity. Regions of interest (ROIs) were drawn on the dorsal side of the animal and quantified by using Living Image Software version 3.1. Counts detected in the ROIs by the CCD camera digitizer can by converted to physical units of radiance in photons/s/cm2/steradian. Visualization of NGAL di-fusion reporter activity in primary cells were also assayed in the bioimager. NGAL reporter primary cells were first imaged for mCherry activity with block excitation and block emission and NGAL-luciferase activity was quantified by detection of light emitted after cell lysis and incubation with luciferin.

[8] = system: NGAL message; experiment: Ngal in situ hybridization of kidney after lipidA challenge; format: in vivo, mouse; settings: after LipidA treatment
Protocol: In situ hybridization. NGAL RNA was detected using digoxigenin-labeled antisense riboprobes generated from cDNAs encoding Ngal (exon 1-7, 566 bp) by linearization with XhoI followed by T7 RNA polymerase. Kidneys were collected in ice-cold PBS and fixed overnight at 4° C. in 4% paraformaldehyde (PFA) in 0.1 M phosphate buffer saline (PBS), briefly quenched in 50 mM NH4Cl, cryoprotected overnight in 30% sucrose PBS and embedded and sectioned ([…]) in O.C.T. compound. The sections were post-fixed in 4% PFA for 10 min, treated with proteinase K (1 mg/ml for 3 min), acetylated and prehybridized for 2 hrs, and then hybridized at 68-72° C. overnight. The prehybridization and hybridization solution was 50% formamide, 5′SSC, 5′ Denhardts, […] baker's yeast RNA (Sigma), and […] herring sperm DNA (Sigma). Sections were washed at 72° C. in 5′SSC for 5-10 minutes, then at 72° C. in 0.2′SSC for 1 hour and then stained overnight (4° C.) with an anti-digoxigenin antibody coupled with alkaline phosphatase (Boehringer-Mannheim), at a 1:5000 dilution in 0.1 M Tris-HCl, pH 7.5, 0.15 M NaCl, 1% heat inactivated goat serum. Alkaline phosphatase activity was detected using BCIP, NBT (Boehringer-Mannheim) with 0.25 mg/ml levamisole in a humidified chamber for 1-3 days in the dark. Sections were dehydrated and mounted in Permount (Fisher Scientific). […]

[9] = format: in vivo, mouse
From the text: Identification of Hidden Damage. Serum creatinine was little changed in our model of unilateral ischemia, because the untouched contralateral kidney limited the opportunity for azotemia.

[10] = system: NGAL message; experiment: NGAL message (real-time PCR) in kidney after LipidA; format: in vivo, mouse; settings: 30 mg/kg LipidA
Protocol: Real-Time PCR were prepared according to Bio-Rad SYBR GREEN, iCyclerMyiQ protocols. Target genes, including Ngal, β-actin, utilized respectively: Ngal 116 forward primer 5′-[…]-3′ and NGALa593 reverse 5′-[…]-3′; β-actin415 forward primer 5′-[…]-3′ and β-actin 696 reverse primer 5′-[…]-3′. The ΔΔCT method was used to calculate fold amplification of transcripts.
Real Time PCR analysis. Samples were processed according to Bio-Rad SYBR GREEN, iCyclerMyiQ protocols. Target genes utilized respectively: Ngal 116 forward primer 5′-[…]-3′ and NGALa593 reverse 5′-[…]-3′; β-actin415 forward primer 5′-[…]-3′ and β-actin 696 reverse primer 5′-[…]-3′. The ΔΔCT method was used to calculate fold amplification of transcripts.

[11] = system: NGAL reporter ES cells; experiment: NGAL-luciferase responsiveness in NGAL reporter ES cells; format: cell-based, mouse; settings: NGAL reporter ES cells exposed to stimulant; control conditions no detectable expression
From the text: […]. […] […]. Verification of the germline-transmitted F1 mice. The targeted allele was PCR-amplified by using primers F2, and R3 which was from the 1 Kb DNA fragment replaced by a DTA-AMP^r cassette in the targeting construct.
NGAL targeting in mouse ES cells. The NGAL-targeting construct was electroporated into the KV1 ES cells, and the neomycin-resistant ES clones were PCR-screened for the targeted NGAL allele for homologous recombination. Additionally, ES cells containing the NGAL di-fusion gene were challenged with either cisplatin or LPS to induce NGAL reporter activity (FIG. 1B, Panel D). ES cells with a Luc2-mCherry-LNL knockin allele were microinjected into wild-type C57B6 blastocysts to generate chimera which were subsequently mated with albino C57B6 female mice for germline transmission. The F1 mice were PCR-genotyped by using primers F1, R1 and R2, and the germline transmitted mice contained both targeted and wild type alleles (FIG. 1B, Panel C).
Luciferase (pGL4.10[luc2], Promega E6651) and mCherry (pmCherry [mC], Clontech 632522) genes separated by a 42 by spacer were ligated by overlap PCR and validated in 293T cells using a CMV promoter to drive robust Luc2 and mC bioluminescence and fluorescence (FIG. 1A, Panel A). […]

In the case of `NCC(=O)O.[CH+]=O.[CH+]=O.[CH+]=O.[Cl][Ru]` [CORM-3, tricarbonylchloro(glycinato)ruthenium(II)], the “Levels of plasma creatinine” value ([1]; given 1 hour before onset of ischemia, 24 hours after reperfusion) is listed as “significantly decreased”.

In the case of `CC(C)C[C@@H](C=O)NC(=O)[C@H](CC(C)C)NC(=O)[C@H](CC(C)C)NC(=O)OCc1ccccc1` [MG-132] (Cbz-Leu-Leu-Leu-aldehyde), the “Tonic NGAL and Luc2/mC expression in testis” value [2] is reported as “suppressed” and the “LipidA induced Luc/mC expression” value ([2]; NGAL reporter mouse) is reported as “reduced LipidA induced Luc/mC expression”.

In the case of `CN(C)CC(=O)Nc1ccc2[nH]c(=O)c3ccccc3c2c1` [PJ34], the “Local production of inflammatory mediators” value [3] is listed as “modulates the local production of inflammatory mediators”.

In the case of `N.N.[Cl][Pt][Cl]` [cisplatin], the “Response of primary reporter kidney cells (luciferase)” value [4] is reported as “direct effect on renal epithelia”.

In the case of `CC(=O)O[C@H]1C(=O)[C@@]2(C)[C@H]([C@H](OC(=O)c3ccccc3)[C@]3(O)C[C@H](OC(=O)[C@H](O)[C@@H](NC(=O)c4ccccc4)c4ccccc4)C(C)=C1C3(C)C)[C@]1(OC(C)=O)CO[C@@H]1C[C@@H]2O` [taxol], the Cyst growth [5] is given as “limit cyst growth”.

For `[C-]#[O+].[C-]#[O+].[C-]#[O+].[C-]#[O+].[C-]#[O+].[C-]#[O+].[Cl][Ru][Cl].[Cl][Ru][Cl]` [tricarbonyldichlororuthenium(II) dimer], the “Levels of plasma creatinine” value ([1]; in vivo) is given as “significantly decreased”.

With Cobalt the NGAL expression [6] was “trigger NGAL expression”.

In the case of LipidA, the “NGAL activity assayed by luciferase (Luc2/mC response)” value [7] is reported as “graded Luc-mC response”, the “NGAL activity assayed by luciferase (Luc2/mC response)” value ([7]; listed as lipidA) is reported as “upregulated and dose dependent” and the “Luc/mC induction, positive control” value ([7]; same mice at a later time after volume depletion) is reported as “effectively induced Luc/mC”. For the same molecule, the “Localisation of Ngal expression in kidney” value [8] was “predominate expression in inner medullary tubules”, the “Localisation of Ngal expression in kidney” value ([8]; listed as lipidA) was “expressed in tubules” and the Azotemia ([9]; 30 mg/kg dose of LipidA) was “induced Luc/mC and azotemia”. For the same molecule, the “Azotemia / serum creatinine” value ([9]; low doses of LipidA (Luc/mC still induced)) was “without azotemia or a change in serum creatinine”, the “NGAL message induced in the kidney” value [10] was 30 fold and the “Response of primary reporter kidney cells (luciferase)” value [4] was “responded in dose-dependent manner”. The NGAL-luciferase activity [11] was “induced NGAL-luciferase activity”.
